# Measurements: patent publication US20210355104A1, “ADENOSINE RECEPTOR BINDING COMPOUNDS” (Nikang Therapeuticsm Inc., priority 2018, published 2021)
# “And” between values parts separate entries of the source, which are not always exact repeats. Equal entries are not always repeated.
# Target: Adenosine A2A receptor (Homo sapiens, UniProt P29274)
# Assay: cAMP assay in 293A cells stably expressing the adenosine A2A receptor (CGS21680 stimulation, HTRF)
# Format: cell-based
# Parameters: expressed in transfected cells; host or cells: 293A cells (Invitrogen, Cat# R705-07) infected with A2A-expressing lentivirus (custom packaged by Biosettia), puromycin selected
# Details: 293A cells stably expressing A2A receptor; 0.1% BSA; 1 uM CGS21680 stimulation; replicate values separated by /; read-out: cAMP (nM) 0.1% BSA, 1 uM CGS
# Sequence of Adenosine A2A receptor (P29274 whole entry): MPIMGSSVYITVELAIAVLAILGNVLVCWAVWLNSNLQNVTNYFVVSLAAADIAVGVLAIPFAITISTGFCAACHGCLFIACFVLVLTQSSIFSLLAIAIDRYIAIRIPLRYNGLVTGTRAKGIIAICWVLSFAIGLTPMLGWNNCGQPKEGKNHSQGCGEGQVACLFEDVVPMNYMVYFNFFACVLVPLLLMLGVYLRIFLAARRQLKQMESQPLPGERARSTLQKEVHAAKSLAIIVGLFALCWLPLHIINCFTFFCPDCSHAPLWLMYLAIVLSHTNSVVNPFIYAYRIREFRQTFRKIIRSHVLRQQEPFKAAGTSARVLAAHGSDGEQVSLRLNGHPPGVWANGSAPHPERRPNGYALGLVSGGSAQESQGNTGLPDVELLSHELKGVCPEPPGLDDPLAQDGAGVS
row,SMILES,IC50
1,"Cc1cc(-c2c(OCc3cc(N4CCOCC4)cc(C(C)(C)O)n3)nc(N)nc2-c2ccc(F)cc2)cc(C(F)F)n1 [Example 424, 2-(6-(((2-amino-5-(2-(difluoromethyl)-6-methylpyridin-4-yl)-6-(4-fluorophenyl)pyrimidin-4-yl)oxy)methyl)-4-morpholinopyridin-2-yl)propan-2-ol]",5930 nM and 9830 nM

# Same assay, conditions: 293A-A2AR cells, 0.1% BSA, 8 nM CGS; values separated by / are repeat determinations; read-out: cAMP (nM) 0.1% BSA, 8 nM CGS
row,SMILES,IC50
1,"CC(=O)Nc1ccc(CCOc2nc(N)nc(-c3ccccc3)c2-c2cc(C)nc(C(F)(F)F)c2)cc1 [Example 9, N-(4-(2-((2-amino-5-(2-methyl-6-(trifluoromethyl)pyridin-4-yl)-6-phenylpyrimidin-4-yl)oxy)ethyl)phenyl)acetamide]",5.7 nM and 14 nM

# Same assay, conditions: 293A-A2AR cells, 0.1% BSA, 1 uM CGS; read-out: cAMP (nM) 0.1% BSA, 1 uM CGS
row,SMILES,IC50
1,"CCc1nnn(C[C@H](O)CO)c1COc1nc(N)nc(-c2ccc(F)cc2)c1-c1cc(C)nc(C(F)F)c1 [Example 318, (S)-3-(5-(((2-amino-5-(2-(difluoromethyl)-6-methylpyridin-4-yl)-6-(4-fluorophenyl)pyrimidin-4-yl)oxy)methyl)-4-ethyl-1H-1,2,3-triazol-1-yl)propane-1,2-diol]",1350 nM
2,"Cc1cc(-c2c(OCc3cccc(N4CCC[C@H]4C(=O)O)n3)nc(N)nc2-c2ccc(F)cc2)cc(C(F)F)n1 [Example 311, (6-(((2-amino-5-(2-(difluoromethyl)-6-methylpyridin-4-yl)-6-(4-fluorophenyl)pyrimidin-4-yl)oxy)methyl)pyridin-2-yl)-L-proline]",> 10000 nM
3,"CCc1c(COc2nc(N)nc(-c3ccc(F)cc3)c2-c2cc(C)nc(C(F)F)c2)nnn1CC(=O)O [Example 232, 2-(4-(((2-amino-5-(2-(difluoromethyl)-6-methylpyridin-4-yl)-6-(4-fluorophenyl)pyrimidin-4-yl)oxy)methyl)-5-ethyl-1H-1,2,3-triazol-1-yl)acetic acid]",4510 nM
4,"CCc1nn(CC(=O)O)nc1COc1nc(N)nc(-c2ccc(F)cc2)c1-c1cc(C)nc(C(F)F)c1 [Example 231, 2-(4-(((2-amino-5-(2-(difluoromethyl)-6-methylpyridin-4-yl)-6-(4-fluorophenyl)pyrimidin-4-yl)oxy)methyl)-5-ethyl-2H-1,2,3-triazol-2-yl)acetic acid]",> 25000 nM
5,"Cc1cc(-c2c(OCc3ncc(C(C)(O)C(=O)O)n3C)nc(N)nc2-c2ccc(F)cc2)cc(C(F)F)n1 (stereo not shown) [Example 395, 2-(2-(((2-amino-5-(2-(difluoromethyl)-6-methylpyridin-4-yl)-6-(4-fluorophenyl)pyrimidin-4-yl)oxy)methyl)-1-methyl-1H-imidazol-5-yl)-2-hydroxypropanoic acid]",> 50000 nM
6,"CCn1nccc1COc1nc(N)nc(-c2cccc(C#N)c2C)c1-c1cc(C)nc(C(F)F)c1 [Example 243, 3-(2-amino-5-(2-(difluoromethyl)-6-methylpyridin-4-yl)-6-((1-ethyl-1H-pyrazol-5-yl)methoxy)pyrimidin-4-yl)-2-methylbenzonitrile]",2950 nM
7,"Cc1cc(-c2c(OCc3cccc(N4CCCC4)n3)nc(N)nc2-c2ccc(F)cc2)cc(C(F)F)n1 [Example 283, 5-(2-(difluoromethyl)-6-methylpyridin-4-yl)-4-(4-fluorophenyl)-6-((6-(pyrrolidin-1-yl)pyridin-2-yl)methoxy)pyrimidin-2-amine]",1170 nM
8,"Cc1cc(-c2c(OCC3CC(C(=O)O)C3)nc(N)nc2-c2ccc(F)cc2)cc(C(F)F)n1 (stereo not shown) [Example 325, 3-(((2-amino-5-(2-(difluoromethyl)-6-methylpyridin-4-yl)-6-(4-fluorophenyl)pyrimidin-4-yl)oxy)methyl)cyclobutane-1-carboxylic acid]",> 25000 nM
9,"Cc1cc(-c2c(OCCN(C)c3nccc(C(C)(C)C#N)n3)nc(N)nc2-c2ccc(F)cc2)cc(C(F)F)n1 [Example 372, 2-(2-((2-((2-amino-5-(2-(difluoromethyl)-6-methylpyridin-4-yl)-6-(4-fluorophenyl)pyrimidin-4-yl)oxy)ethyl)(methyl)amino)pyrimidin-4-yl)-2-methylpropanenitrile]",128 nM and 130 nM and 160 nM
10,"Cc1cc(-c2c(OCc3cc4ccccc4cn3)nc(N)nc2-c2ccc(F)cc2)cc(C(F)F)n1 [Example 382, 5-(2-(difluoromethyl)-6-methylpyridin-4-yl)-4-(4-fluorophenyl)-6-(isoquinolin-3-ylmethoxy)pyrimidin-2-amine]",955 nM
11,"Cc1cc(-c2c(NCc3cccc(C(C)(C)C#N)n3)nc(N)nc2-c2ccc(F)cc2)cc(C(F)F)n1 [Example 356, 2-(6-(((2-amino-5-(2-(difluoromethyl)-6-methylpyridin-4-yl)-6-(4-fluorophenyl)pyrimidin-4-yl)amino)methyl)pyridin-2-yl)-2-methylpropanenitrile]",1420 nM
12,"Cc1cc(-c2c(OCc3ccc(F)c(C(C)(C)C(=O)O)c3)nc(N)nc2-c2ccc(F)cc2)cc(C(F)F)n1 [Example 367, 2-(5-(((2-amino-5-(2-(difluoromethyl)-6-methylpyridin-4-yl)-6-(4-fluorophenyl)pyrimidin-4-yl)oxy)methyl)-2-fluorophenyl)-2-methylpropanoic acid]",11800 nM
13,"CCn1ccc(COc2nc(N)nc(-c3cccc(C#N)c3C)c2-c2cc(C)nc(C(F)F)c2)n1 [Example 244, 3-(2-amino-5-(2-(difluoromethyl)-6-methylpyridin-4-yl)-6-((1-ethyl-1H-pyrazol-3-yl)methoxy)pyrimidin-4-yl)-2-methylbenzonitrile]",756 nM
14,"Cc1cc(-c2c(OCc3cccc(C#CC(C)(C)C(=O)O)n3)nc(N)nc2-c2ccc(F)cc2)cc(C(F)F)n1 [Example 384, 4-(6-(((2-amino-5-(2-(difluoromethyl)-6-methylpyridin-4-yl)-6-(4-fluorophenyl)pyrimidin-4-yl)oxy)methyl)pyridin-2-yl)-2,2-dimethylbut-3-ynoic acid]",15400 nM
15,"Cc1cc(-c2c(OCc3nc4c(C(C)(C)C(=O)O)cccc4n3C)nc(N)nc2-c2ccc(F)cc2)cc(C(F)F)n1 [Example 359, 2-(2-(((2-amino-5-(2-(difluoromethyl)-6-methylpyridin-4-yl)-6-(4-fluorophenyl)pyrimidin-4-yl)oxy)methyl)-1-methyl-1H-benzo[d]imidazol-4-yl)-2-methylpropanoic acid]",9470 nM and 8890 nM
16,"CCc1nnn(CC(=O)O)c1COc1nc(N)nc(-c2ccc(F)cc2)c1-c1cc(C)nc(C(F)F)c1 [Example 233, 2-(5-(((2-amino-5-(2-(difluoromethyl)-6-methylpyridin-4-yl)-6-(4-fluorophenyl)pyrimidin-4-yl)oxy)methyl)-4-ethyl-1H-1,2,3-triazol-1-yl)acetic acid]",16300 nM
17,"Cc1cc(-c2c(OCc3cccc(C(=O)O)n3)nc(N)nc2-c2ccc(F)cc2)cc(C(F)F)n1 [Example 274, 6-(((2-amino-5-(2-(difluoromethyl)-6-methylpyridin-4-yl)-6-(4-fluorophenyl)pyrimidin-4-yl)oxy)methyl)picolinic acid]",3210 nM
18,Cc1cc(-c2c(OCc3cccc(N)n3)nc(N)nc2-c2ccc(F)cc2)cc(C(F)F)n1 [Example 376],133 nM and 209 nM and 375 nM and 142 nM and 48 nM
19,"Cc1cc(-c2c(OC[C@H]3CC[C@@H](C(=O)O)CC3)nc(N)nc2-c2ccc(F)cc2)cc(C(F)F)n1 [Example 278, (1,4-cis)-4-(((2-amino-5-(2-(difluoromethyl)-6-methylpyridin-4-yl)-6-(4-fluorophenyl)pyrimidin-4-yl)oxy)methyl)cyclohexane-1-carboxylic acid]",19900 nM
20,Cc1cc(-c2c(OCCOC(C)(C)C(=O)O)nc(N)nc2-c2ccc(F)cc2)cc(C(F)F)n1 [Example 226],> 2500 nM
